Assay results: patent US6552082B2, “Solution of N-[o-(p-pivaloyloxybenzenesulfonylamino)benzoyl] glycine monosodium salt tetra-hydrate and drug product thereof” (Ono Pharmaceutical Co., Ltd., priority 2000, dated 2003)

How the values were obtained:
[1] = amount of sodium hydroxide and stability in water/ethanol solution; assay type: physicochemical; settings: pH over 8.5
Experimental: To the mixture added water in order to fill up to 5 mL of total solution.

[2] = admixing with amino acid infusion as replacement of pH adjusters; assay type: physicochemical; settings: compound (I) 5 mg/mL admixed with KYORYOKU MORIAMINE infusion
elastase = molecular target: T1, elastase (Homo sapiens, UniProt P08246); settings: background statement; cited from earlier work
T1 sequence (P08246 30-267): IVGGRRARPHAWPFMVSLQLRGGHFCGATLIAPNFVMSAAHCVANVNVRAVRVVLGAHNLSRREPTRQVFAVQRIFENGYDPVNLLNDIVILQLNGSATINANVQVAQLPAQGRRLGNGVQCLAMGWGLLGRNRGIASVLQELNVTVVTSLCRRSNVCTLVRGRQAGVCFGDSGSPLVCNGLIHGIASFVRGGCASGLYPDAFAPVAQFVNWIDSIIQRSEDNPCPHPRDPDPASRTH

[3] = investigation of a solution of high concentration; assay type: physicochemical; settings: 400 mg compound (I), 100 mg mannitol, 24 mg sodium hydroxide, water to 5 mL
Experimental: To the mixture under stirring, was added IN aqueous solution of sodium hydroxide (0.6 mL: corresponds to 24 mg). Thereto was added water in order to fill up to 5 mL of total amount. […] Therefore it was impossible to freeze-dry the suspension.

[4] = investigation of pH adjusters: amount added, pH and clearness of suspension; assay type: physicochemical
Experimental: The present inventors have investigated the amounts of di-sodium hydrogen phosphate, tri-sodium phosphate, potassium hydroxide and sodium hydroxide to add and the changes in pH thereby.
Di-sodium hydrogen phosphate dodecahydrate (80 g) was added to water (200 mL) and dissolved by heating. To the above suspension under stirring with a stirrer was added the aqueous solution of Di-sodium hydrogen phosphate dodecahydrate by 5 mL each and the pH was measured.
To the suspension under stirring with a stirrer was added an aqueous solution of […] (4 g/100 mL) by 5 mL portion each and the pH was measured.
To the suspension under stirring with a stirrer was added 1N aqueous solution of potassium hydroxide (0.5 mL portion each) and the pH of the solution was measured.
To the suspension under stirring with a stirrer was added 1N aqueous solution of sodium hydroxide (1 mL portion each) and the pH was measured.

[5] = change of pH in the time course on freeze-dried product comprising sodium carbonate; assay type: physicochemical
Experimental: (a) when the aqueous solution was prepared,
(b) when the prepared aqueous solution was filled in each vial (5 mL), freeze-dried and then dissolved in water (10 mL),
(c) when the prepared aqueous solution was filled in each vial (5 mL), freeze-dried and the formulation obtained was left at 60 degrees Centigrade for two weeks and dissolved in water (10 mL).

[6] = stability of the drug products (pH and residual rate of freeze-dried products); assay type: physicochemical
Experimental: (i) an aqueous solution of tri-sodium phosphate dodecahydrate (36.4 mg/mL; 50 mL),
(ii) an aqueous solution of potassium hydroxide (56 mg/mL 6 mL),
(iii) an aqueous solution of sodium hydroxide (40 mg/mL; 5.6 mL)
(a) when the aqueous solutions were prepared,
(b) when the prepared aqueous solutions were filled in each vial (5 mL), freeze-dried and then dissolved in water (10 mL),
(c) when the prepared aqueous solution was filled in each vial (5 mL), freeze-dried and the drug product was left at 60 degrees Centigrade for two weeks (in case of sodium hydroxide for one month) and dissolved in water (10 mL).

[7] = solubility of the compound (I) in normal solvents; assay type: physicochemical
[8] = formulation with sodium carbonate

CC(C)(C)C(=O)Oc1ccc(S(=O)(=O)Nc2ccccc2C(=O)NCC(=O)[O-])cc1.[Na+] [compound (I), N-[o-(p-pivaloyloxybenzenesulfonylamino)benzoyl]glycine monosodium salt tetra-hydrate]
residual rate of the compound (I) [1]: over 98% | pH after preparation [2]: 6.36 | pH after twenty-four hours [2]: 6.13 | residual rate of the compound (I) after twenty-four hours [2]: 54.1% | inhibitory activity against elastase (elastase): has an inhibitory activity against elastase | condition of the mixture (clear solution or not) ([3]; ethanol 1.0 mL): clear solution | condition of the mixture (clear solution or not) ([3]; no ethanol): did not turn into a clear solution but a white suspension | pH when the suspension turned into a clear aqueous solution ([4]; 5 mL of 1N potassium hydroxide added): 7.20 | pH when the suspension turned into a clear aqueous solution ([4]; 7 mL of 1N sodium hydroxide added): 7.44 | pH when the suspension turned into a clear aqueous solution ([4]; 45 mL of tri-sodium phosphate dodecahydrate solution added): 7.19 | condition of the suspension (clear solution or not) ([4]; di-sodium hydrogen phosphate dodecahydrate solution 200 mL (80 g), pH 8.18): did not turn into a clear aqueous solution | pH (a) when the aqueous solution was prepared ([5]; formulation of JP kokai hei 5-194366 with sodium chloride and sodium carbonate): 7.80 | pH (b) freeze-dried and then dissolved in water (10 mL) [5, 8]: 8.11 | pH (c) freeze-dried, left at 60 degrees Centigrade for two weeks, dissolved in water (10 mL) [5, 8]: 8.44 | residual rate of the compound (I) ([5]; freeze-dried product with sodium carbonate, 60 degrees Centigrade, two weeks): 91.4% | solubility ([6]; aqueous buffer, solvent exclusively water, with pH adjuster, read-out: solubility of the above solution (water with pH adjuster)): ~20 mg/mL | residual rate of the compound (I) ([6]; freeze-dried product with sodium hydroxide, 60 degrees Centigrade, 1 month): 98.3% | solubility ([7]; ethanol, organic solvent or mixture, read-out: solubility in ethanol): < 6000 µg/mL | solubility ([7]; water, read-out: solubility in water): < 400 µg/mL
